pEC50: −log10 of the molar value.

In general, Emax refers to the maximal effect, on the per cent scale that the assay sets. As a reminder, the pEC50 is the negative decadic logarithm of the EC50, by convention in mol/L. A high value points to a low EC50.

The assay deals with T1, Kv7.2 (Homo sapiens, UniProt O43526).
T1 construct: expressed in transfected cells
In words: Activation of Kv7.2 (in vitro assay, concentration response curve). It is filed as cell-based. The note with it: for Emax: Kv7.2 activation max %; for pEC50: activation of Kv7.2. The procedure, abridged:
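Agonist activity was measured in vitro across a range of compound concentrations and plotted as a sigmoidal concentration–response curve. EC50 is the concentration giving 50% of that compound's own maximal response (Emax).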

`CC12CC(NC(=O)NCc3ccnc(OC(F)F)c3)(C1)C2` [Example 182, 1-[[2-(difluoromethoxy)pyridin-4-yl]methyl]-3-(3-methyl-1-bicyclo[1.1.1]pentanyl)urea] showed a maximal response (Emax) of 63% and a negative-log EC50 (pEC50) of 7.05.

As to `CC(F)COc1cc(CNC(=O)N[C@H]2C[C@H](C(F)(F)F)C2)ccn1` (stereo partly drawn) [Example 183, 1-[[2-(2-fluoropropoxy)pyridin-4-yl]methyl]-3-[(1r,3r)-3-(trifluoromethyl)cyclobutyl]urea], the maximal effect (Emax) stood at 58% and the negative-log EC50 (pEC50) is 6.59.

In turn, `C[C@]1(O)CCC[C@@H]1NC(=O)NCc1ccnc(OC(F)F)c1` [Example 184, 1-[[2-(difluoromethoxy)pyridin-4-yl]methyl]-3-[(1S,2S)-2-hydroxy-2-methylcyclopentyl]urea] gave an Emax of 55% and a negative logarithm of the EC50 (pEC50) of 5.74.

In turn, `O=C(NC(CO)c1ccnc(OCC(F)(F)F)c1)N[C@H]1C[C@H](C(F)(F)F)C1` (stereo partly drawn) [Example 185, 1-[2-hydroxy-1-[2-(2,2,2-trifluoroethoxy)pyridin-4-yl]ethyl]-3-[(1r,3r)-3-(trifluoromethyl)cyclobutyl]urea] had an Emax of 84% and a pEC50 of 6.42.

For the compound `O=C(NCc1ccnc(OC(F)F)c1)Nc1ccc(F)c(F)c1` [Example 186, 1-[[2-(difluoromethoxy)pyridin-4-yl]methyl]-3-(3,4-difluorophenyl)urea], the maximum response (Emax) was 62% and the pEC50 is 6.26.

`CC1(C)CC(NC(=O)NCc2ccnc(OC(F)F)c2)C1` [Example 188, 1-[[2-(difluoromethoxy)pyridin-4-yl]methyl]-3-(3,3-dimethylcyclobutyl)urea] showed an Emax of 82% and a pEC50 of 7.30.

Compound `O=C(NCc1ccnc(OC(F)F)c1)N[C@H]1C[C@@H]2[C@H](C1)C2(F)F` [Example 189, 1-[[2-(difluoromethoxy)pyridin-4-yl]methyl]-3-[(1R,3r,5S)-6,6-difluoro-3-bicyclo[3.1.0]hexanyl]urea] gave an Emax of 74% and a pEC50 of 6.89.

Turning to `O=C(NCc1ccnc(OC(F)F)c1)N[C@@H]1C[C@H]2CCC[C@H]2C1` [Example 190, 1-[[2-(difluoromethoxy)pyridin-4-yl]methyl]-3-[(2s,3aR,6aS)-1,2,3,3a,4,5,6,6a-octahydropentalen-2-yl]urea], the Emax was found to be 85% and the negative logarithm of the EC50 (pEC50) was 7.52.

`O=C(NCc1ccnc(OC(F)F)c1)NCC1(C(F)F)CCC1` [Example 191, 1-[[2-(difluoromethoxy)pyridin-4-yl]methyl]-3-[[1-(difluoromethyl)cyclobutyl]methyl]urea] had an Emax of 68% and a pEC50 of 6.35.

In turn, `O=C(NCc1ccnc(OC(F)F)c1)NC1COc2ccccc2C1` (stereo not drawn) [Example 192, 1-[[2-(difluoromethoxy)pyridin-4-yl]methyl]-3-(3,4-dihydro-2H-chromen-3-yl)urea] showed an Emax of 51% and a negative logarithm of the EC50 (pEC50) of 6.62.

Take `C[C@]1(NC(=O)NCc2ccnc(OC(F)F)c2)C[C@@H](C(F)(F)F)C1` [Example 194, 1-[[2-(difluoromethoxy)pyridin-4-yl]methyl]-3-[(1r,3r)-1-methyl-3-(trifluoromethyl)cyclobutyl]urea]: the maximum response (Emax) came out at 40% and the pEC50 is 5.81.

Take `O=C(NCc1ccnc(OC(F)F)c1)N[C@H]1C[C@@H]2CC(F)(F)C[C@@H]2C1` [Example 195, 1-[[2-(difluoromethoxy)pyridin-4-yl]methyl]-3-[(2r,3aR,6aS)-5,5-difluoro-2,3,3a,4,6,6a-hexahydro-1H-pentalen-2-yl]urea]: the maximal effect (Emax) is 51% and the pEC50 is 6.54.

Take `O=C(NCc1ccnc(OC(F)F)c1)N[C@H]1C[C@@H](C(F)(F)F)C1` [Example 198, 1-[[2-(difluoromethoxy)pyridin-4-yl]methyl]-3-[(1s,3s)-3-(trifluoromethyl)cyclobutyl]urea]: the maximal response (Emax) was 65% and the pEC50 was 6.40.

Take `C[C@@H](F)COc1cc(CNC(=O)N[C@H]2C[C@H](C(F)(F)F)C2)ccn1` [Example 199, 1-[[2-[(2R)-2-fluoropropoxy]pyridin-4-yl]methyl]-3-[(1r,3r)-3-(trifluoromethyl)cyclobutyl]urea]: the Emax turned out to be 52% and the negative-log EC50 (pEC50) was 6.54.

For the compound `CC(F)(F)c1cc(CNC(=O)NC23CC(F)(C2)C3)ccn1` [Example 200, 1-[[2-(1,1-difluoroethyl)pyridin-4-yl]methyl]-3-(3-fluoro-1-bicyclo[1.1.1]pentanyl)urea], the maximum response (Emax) came to 54% and the pEC50 is 5.31.

For `CC(F)(F)COc1cc(CNC(=O)NC23CC(F)(C2)C3)ccn1` [Example 201, 1-[[2-(2,2-difluoropropoxy)pyridin-4-yl]methyl]-3-(3-fluoro-1-bicyclo[1.1.1]pentanyl)urea], the Emax worked out at 60% and the pEC50 was 6.68.

The compound `C[C@H](F)COc1cc(CNC(=O)N[C@H]2C[C@H](C(F)(F)F)C2)ccn1` [Example 202, 1-[[2-[(2S)-2-fluoropropoxy]pyridin-4-yl]methyl]-3-[(1r,3r)-3-(trifluoromethyl)cyclobutyl]urea] gave a maximal response (Emax) of 57% and a pEC50 of 6.59.

`O=C(NCc1ccnc(OCC(F)(F)F)n1)Nc1cccc(Cl)c1` [Example 203, 1-(3-chlorophenyl)-3-[[2-(2,2,2-trifluoroethoxy)pyrimidin-4-yl]methyl]urea]: the Emax was 42% and the pEC50 is 6.68.

Turning to `O=C(NCc1ccnc(OCC(F)(F)F)n1)N[C@H]1C[C@H](C(F)(F)F)C1` [Example 204, 1-[[2-(2,2,2-trifluoroethoxy)pyrimidin-4-yl]methyl]-3-[(1r,3r)-3-(trifluoromethyl)cyclobutyl]urea], the Emax turned out to be 45% and the pEC50 is 6.47.

In turn, `Cc1cc(NC(=O)NC(CO)c2ccnc(OCC(F)(F)F)c2)ccc1F` (stereo not drawn) [Example 205, 1-(4-fluoro-3-methylphenyl)-3-[2-hydroxy-1-[2-(2,2,2-trifluoroethoxy)pyridin-4-yl]ethyl]urea] gave a maximal response (Emax) of 64% and a negative logarithm of the EC50 (pEC50) of 6.62.

In turn, `O=C(NCc1ccnc(OCF)c1)NC12CCC(F)(CC1)CC2` [Example 208, 1-(4-fluoro-1-bicyclo[2.2.2]octanyl)-3-[[2-(fluoromethoxy)pyridin-4-yl]methyl]urea] showed an Emax of 58% and a negative-log EC50 (pEC50) of 6.33.

Turning to `O=C(NCc1ccnc(OC2CC(F)(F)C2)c1)N[C@H]1C[C@H](C(F)(F)F)C1` [Example 209, 1-[[2-(3,3-difluorocyclobutyl)oxypyridin-4-yl]methyl]-3-[(1r,3r)-3-(trifluoromethyl)cyclobutyl]urea], the Emax worked out at 71% and the pEC50 was 6.31.

Consider `O=C(NCc1ccnc(OCC(F)(F)F)c1)NCC1(F)CCC1` [Example 210, 1-[(1-fluorocyclobutyl)methyl]-3-[[2-(2,2,2-trifluoroethoxy)pyridin-4-yl]methyl]urea], for which the maximal response (Emax) worked out at 48% and the pEC50 was 6.80.

As to `O=C(NCc1ccnc(OC(F)F)c1)N[C@H]1CC[C@@H](C(F)(F)F)CC1` [Example 211, 1-[[2-(difluoromethoxy)pyridin-4-yl]methyl]-3-[(1s,4s)-4-(trifluoromethyl)cyclohexyl]urea], the Emax is 61% and the pEC50 is 6.49.

Compound `C[Si](C)(C)CCNC(=O)NCc1ccnc(OC(F)F)c1` [Example 212, 1-[[2-(difluoromethoxy)pyridin-4-yl]methyl]-3-(2-trimethylsilylethyl) urea] showed an Emax of 82% and a pEC50 of 6.40.

The compound `O=C(NCc1ccnc(OCC(F)CF)c1)NC12CCC(F)(CC1)CC2` (stereo not drawn) [Example 213, 1-[[2-(2,3-difluoropropoxy)pyridin-4-yl]methyl]-3-(4-fluoro-1-bicyclo[2.2.2]octanyl)urea] had an Emax of 47% and a pEC50 of 6.47.

In turn, `O=C(NCc1ccnc(OCC(F)CF)c1)N[C@H]1C[C@H](C(F)(F)F)C1` (stereo partly drawn) [Example 214, 1-[[2-(2,3-difluoropropoxy)pyridin-4-yl]methyl]-3-[(1r,3r)-3-(trifluoromethyl)cyclobutyl]urea] showed a maximal effect (Emax) of 54% and a negative logarithm of the EC50 (pEC50) of 6.30.

Turning to `O=C(NCc1cnnc(OCC(F)(F)F)c1)N[C@H]1C[C@H](C(F)(F)F)C1` [Example 215], the maximal effect (Emax) is 40% and the negative logarithm of the EC50 (pEC50) was 5.17.

On to `O=C(NCc1ccnc(OCC(F)CF)c1)NC12CC(F)(C1)C2` (stereo not drawn) [Example 216, 1-[[2-(2,3-difluoropropoxy)pyridin-4-yl]methyl]-3-(3-fluoro-1-bicyclo[1.1.1]pentanyl)urea], for which the Emax was 50% and the negative logarithm of the EC50 (pEC50) is 5.83.

`O=C(NCc1ccnc(OCC(F)F)c1)NC12CC(F)(C1)C2` [Example 217, 1-[[2-(2,2-difluoroethoxy)pyridin-4-yl]methyl]-3-(3-fluoro-1-bicyclo[1.1.1]pentanyl)urea]: the maximal response (Emax) is 43% and the negative logarithm of the EC50 (pEC50) was 6.51.

In the case of `Cc1cccc(NC(=O)NCc2ccnc(OC(F)F)c2)n1` [Example 218, 1-[[2-(difluoromethoxy)pyridin-4-yl]methyl]-3-(6-methylpyridin-2-yl)urea], the Emax turned out to be 54% and the pEC50 is 5.83.

`O=C(NCc1ccnc(OC(F)F)c1F)N[C@H]1C[C@H](C(F)(F)F)C1` [Example 219, 1-[[2-(difluoromethoxy)-3-fluoropyridin-4-yl]methyl]-3-[(1r,3r)-3-(trifluoromethyl)cyclobutyl]urea] gave an Emax of 48% and a pEC50 of 6.42.

Take `O=C(NCc1ccnc(OCC(F)CF)c1)Nc1cccc(Cl)c1` (stereo not drawn) [Example 220, 1-(3-chlorophenyl)-3-[[2-(2,3-difluoropropoxy)pyridin-4-yl]methyl]urea]: the maximal effect (Emax) is 48% and the pEC50 is 6.34.

The record behind these values is patent US20250074901A1, “NOVEL HETEROARYL COMPOUNDS” (ICAGEN, LLC, priority 2021, published 2025).
